Where “and” joins values, the source holds several entries; their conditions need not be identical. Identical values can stand only once.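 Grown in 96-well plates, cells were treated for 48 hours with each compound at five concentrations. Insufficient inhibition: endpoint recorded as highest concentration tested. GI50 marks 50% less growth. TGI denotes the concentration required for complete inhibition of growth.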
Assays:
Assay in all cases: growth of human tumour cells (NCI), 48 h
BT-549 breast = test system: BT-549 breast
UACC-62 melanoma = test system: UACC-62 melanoma
UACC-257 melanoma = test system: UACC-257 melanoma
RXF 393 renal = test system: RXF 393 renal
MDA-MB-231 breast = test system: MDA-MB-231 breast
SK-MEL-5 melanoma = test system: SK-MEL-5 melanoma
SR leukemia = test system: SR leukemia
COLO 205 colon = test system: COLO 205 colon
HT29 colon = test system: HT29 colon
NCI-H23 lung = test system: NCI-H23 lung

Structure (SMILES)	TGI (BT-549 breast) [µM]	TGI (UACC-62 melanoma) [µM]	TGI (UACC-257 melanoma) [µM]	TGI (RXF 393 renal) [µM]	TGI (MDA-MB-231 breast) [µM]	TGI (SK-MEL-5 melanoma)	TGI (SR leukemia) [µM]	TGI (COLO 205 colon) [µM]	TGI (HT29 colon) [µM]	TGI (NCI-H23 lung) [µM]	GI50 (BT-549 breast) [µM]	GI50 (UACC-62 melanoma) [µM]	GI50 (UACC-257 melanoma) [µM]	GI50 (MDA-MB-231 breast) [µM]	GI50 (SK-MEL-5 melanoma) [µM]	GI50 (SR leukemia) [µM]	GI50 (COLO 205 colon) [µM]	GI50 (HT29 colon) [µM]	GI50 (NCI-H23 lung) [µM]	GI50 (RXF 393 renal) [µM]
CCO/C=C1\SC(=S)N(c2ccc(OCC)cc2)C1=O	> 100	> 100	> 100	> 100	> 100	> 100 µM	> 100	> 100	> 100	> 100										
O=C1c2ccccc2C(=O)c2c(NC3CCCCC3)ccc(Nc3ccc(S(=O)(=O)O)cc3)c21	> 100	> 100	63.7	> 100	69.9	> 100 µM	> 100	53.1	> 100	> 100										
O=C(COc1ccc(/C=C2\Oc3ccccc3C2=O)cc1)Nc1nc2ccccc2s1	> 80.5	> 100	45.2		60.3	> 100 µM	8.57	> 89.8	> 100	> 100	6.67	42	8.24	4.7	29.7	2.38	32	23.6	18.8	
Nc1nccc(-c2c(-c3ccc(F)cc3)nn3cc(C(F)(F)F)ccc23)n1	> 25	> 25	> 25	> 25	> 25	> 25 µM	> 25	> 25	> 25	> 25	> 25	> 25	> 25	> 25	> 25	> 25	> 25	> 25	> 25	> 25
CCCCCCCCCCCCCCNC(=O)Nc1ccc(Cl)c(Cl)c1	6.16	> 100	11.3	> 26.3	7.64	3.23 µM	> 23.6	3.48	> 100	26.3	1.87	3.69	2.78	2.56	1.68		1.81	3.27	2.86	4.01
CCCCCCCCCCCC[C@@H](O)[C@H]1CC[C@H]([C@H](O)CC[C@H](O)[C@@H]2CC[C@@H](CCCCCCCC3=C[C@H](C)OC3=O)O2)O1		> 50		> 50	> 50	7.93 µM and > 50 µM	> 50	> 50	> 50	> 50	0.00376	> 50	0.152		1.3	> 50	8.16		0.164	
C=C(CN1CCc2[nH]c3ccc(F)cc3c2C1)c1ccc(C(=O)Nc2ccccc2N)cc1	5.67	5.9	2.71	0.949	11.3	1.83 µM	20.1	6.66	31.6	12.6	1.5	2.26	0.6	2.82	0.502	0.795	2.37	1.8	2.22	0.269
